Results published in ChEMBL document CHEMBL3885861, “Open TG-GATES”.

Species: Rattus norvegicus
Assay: Open TG-GATES - Regimen: Single
Assay type: toxicity, organism-based, Sprague-Dawley
Parameters: regimen Single, gender Male, age 6 weeks
Details: in vivo, po, 15 mg/kg, route gavage, dose level Low; for APTT / Bas / Eos / Fbg / Hb / Ht / Lym / MCHC / MCV / Mono / Neu / PT / Plat / RBC / Ret / WBC: tissue Blood; for KIDNEY_L / KIDNEY_R / KIDNEY_TOTAL: tissue Kidney; for LIVER: tissue Liver; for ALP / ALT / AST / BUN / CRE / Ca / Cl / DBIL / GLC / IP / K / LDH / Na / PL / RALB / TBIL / TC / TG / TP / gamma-GTP: tissue Plasma

C1CCC(C(CC2CCCCN2)C2CCCCC2)CC1 (centres undefined) [PERHEXILINE]
TERMINAL_BW (3 h): 217 g
APTT (3 h): 20.2 s
Bas (3 h): 0%
Eos (3 h): 0.6%
Fbg (3 h): 331 mg/dL
Hb (3 h): 13.3 g/dL
Ht (3 h): 39.6%
Lym (3 h): 79.8%
MCHC (3 h): 33.5%
MCV (3 h): 63.8 fL
Mono (3 h): 1.8%
Neu (3 h): 16.8%
PT (3 h): 15.6 s
Plat (3 h): 121.9 x10_4/uL
RBC (3 h): 620.8 x10_4/ul
Ret (3 h): 7.8%
WBC (3 h): 62.3 x10_2/uL
KIDNEY_L (3 h): 1 g
KIDNEY_R (3 h): 1 g
KIDNEY_TOTAL (3 h): 1.9 g
LIVER (3 h): 10.1 g
ALP (3 h): 1601.6 IU/L
ALT (3 h): 47 IU/L
AST (3 h): 74 IU/L
BUN (3 h): 13 mg/dL
CRE (3 h): 0.1 mg/dL
Ca (3 h): 11 mg/dL
Cl (3 h): 105.6 meq/L
DBIL (3 h): 0.002 mg/dL
GLC (3 h): 181.2 mg/dL
IP (3 h): 8.6 mg/dL
K (3 h): 4 meq/L
LDH (3 h): 183.8 IU/L
Na (3 h): 140.8 meq/L
PL (3 h): 149.4 mg/dL
RALB (3 h): 3.2 g/dL
TBIL (3 h): 0.022 mg/dL
TC (3 h): 81.2 mg/dL
TG (3 h): 90.2 mg/dL
TP (3 h): 5.7 g/dL
gamma-GTP (3 h): 0.6 IU/L
TERMINAL_BW (6 h): 212 g
APTT (6 h): 20.7 s
Bas (6 h): 0%
Eos (6 h): 0.8%
Fbg (6 h): 320.2 mg/dL
Hb (6 h): 13.1 g/dL
Ht (6 h): 39.6%
Lym (6 h): 79.6%
MCHC (6 h): 33.1%
MCV (6 h): 64.4 fL
Mono (6 h): 2%
Neu (6 h): 16.4%
PT (6 h): 15.6 s
Plat (6 h): 134.6 x10_4/uL
RBC (6 h): 615.4 x10_4/ul
Ret (6 h): 7.9%
WBC (6 h): 77.4 x10_2/uL
KIDNEY_L (6 h): 1 g
KIDNEY_R (6 h): 1 g
KIDNEY_TOTAL (6 h): 2 g
LIVER (6 h): 9.5 g
ALP (6 h): 1590.2 IU/L
ALT (6 h): 39 IU/L
AST (6 h): 70 IU/L
BUN (6 h): 10.6 mg/dL
CRE (6 h): 0.1 mg/dL
Ca (6 h): 10.9 mg/dL
Cl (6 h): 105.8 meq/L
DBIL (6 h): 0 mg/dL
GLC (6 h): 170.4 mg/dL
IP (6 h): 9.5 mg/dL
K (6 h): 4.4 meq/L
LDH (6 h): 209.6 IU/L
Na (6 h): 139.2 meq/L
PL (6 h): 134.6 mg/dL
RALB (6 h): 3.1 g/dL
TBIL (6 h): 0.018 mg/dL
TC (6 h): 77.2 mg/dL
TG (6 h): 73.6 mg/dL
TP (6 h): 5.6 g/dL
gamma-GTP (6 h): 1 IU/L
TERMINAL_BW (9 h): 204.6 g
APTT (9 h): 21.4 s
Bas (9 h): 0%
Eos (9 h): 0.8%
Fbg (9 h): 303.4 mg/dL
Hb (9 h): 12.8 g/dL
Ht (9 h): 38.4%
Lym (9 h): 76.2%
MCHC (9 h): 33.5%
MCV (9 h): 62.1 fL
Mono (9 h): 1.6%
Neu (9 h): 21%
PT (9 h): 15.5 s
Plat (9 h): 127.1 x10_4/uL
RBC (9 h): 619.8 x10_4/ul
Ret (9 h): 7%
WBC (9 h): 67.3 x10_2/uL
KIDNEY_L (9 h): 1 g
KIDNEY_R (9 h): 1 g
KIDNEY_TOTAL (9 h): 2 g
LIVER (9 h): 8.9 g
ALP (9 h): 1312.6 IU/L
ALT (9 h): 38 IU/L
AST (9 h): 65.8 IU/L
BUN (9 h): 10.2 mg/dL
CRE (9 h): 0.1 mg/dL
Ca (9 h): 11 mg/dL
Cl (9 h): 105.6 meq/L
DBIL (9 h): 0.004 mg/dL
GLC (9 h): 172 mg/dL
IP (9 h): 9.4 mg/dL
K (9 h): 3.9 meq/L
LDH (9 h): 186.2 IU/L
Na (9 h): 139.6 meq/L
PL (9 h): 124.4 mg/dL
RALB (9 h): 3.1 g/dL
TBIL (9 h): 0.014 mg/dL
TC (9 h): 68.8 mg/dL
TG (9 h): 49.2 mg/dL
TP (9 h): 5.7 g/dL
gamma-GTP (9 h): 1 IU/L
TERMINAL_BW (24 h): 216.9 g
APTT (24 h): 20.4 s
Bas (24 h): 0%
Eos (24 h): 0.8%
Fbg (24 h): 319.6 mg/dL
Hb (24 h): 13.3 g/dL
Ht (24 h): 39.1%
Lym (24 h): 77.8%
MCHC (24 h): 34.1%
MCV (24 h): 63.5 fL
Mono (24 h): 1.8%
Neu (24 h): 18.6%
PT (24 h): 15.8 s
Plat (24 h): 130.2 x10_4/uL
RBC (24 h): 616.8 x10_4/ul
Ret (24 h): 6.2%
WBC (24 h): 108.7 x10_2/uL
KIDNEY_L (24 h): 1 g
KIDNEY_R (24 h): 1 g
KIDNEY_TOTAL (24 h): 1.9 g
LIVER (24 h): 10 g
ALP (24 h): 1593 IU/L
ALT (24 h): 47 IU/L
AST (24 h): 70.6 IU/L
BUN (24 h): 17 mg/dL
CRE (24 h): 0.1 mg/dL
Ca (24 h): 10.8 mg/dL
Cl (24 h): 106.8 meq/L
DBIL (24 h): 0 mg/dL
GLC (24 h): 185.6 mg/dL
IP (24 h): 7.1 mg/dL
K (24 h): 4.1 meq/L
LDH (24 h): 212.8 IU/L
Na (24 h): 142 meq/L
PL (24 h): 158.8 mg/dL
RALB (24 h): 3.2 g/dL
TBIL (24 h): 0.012 mg/dL
TC (24 h): 81.8 mg/dL
TG (24 h): 122 mg/dL
TP (24 h): 5.7 g/dL
gamma-GTP (24 h): 1 IU/L
